The record followed here is ChEMBL document CHEMBL3259804, “Syk inhibitors with high potency in presence of blood” (Bioorg Med Chem Lett, 2014).

Data set [1] concerns the target T1, Tyrosine-protein kinase ZAP-70 (Homo sapiens, UniProt P43403).
T1 sequence (P43403 whole entry): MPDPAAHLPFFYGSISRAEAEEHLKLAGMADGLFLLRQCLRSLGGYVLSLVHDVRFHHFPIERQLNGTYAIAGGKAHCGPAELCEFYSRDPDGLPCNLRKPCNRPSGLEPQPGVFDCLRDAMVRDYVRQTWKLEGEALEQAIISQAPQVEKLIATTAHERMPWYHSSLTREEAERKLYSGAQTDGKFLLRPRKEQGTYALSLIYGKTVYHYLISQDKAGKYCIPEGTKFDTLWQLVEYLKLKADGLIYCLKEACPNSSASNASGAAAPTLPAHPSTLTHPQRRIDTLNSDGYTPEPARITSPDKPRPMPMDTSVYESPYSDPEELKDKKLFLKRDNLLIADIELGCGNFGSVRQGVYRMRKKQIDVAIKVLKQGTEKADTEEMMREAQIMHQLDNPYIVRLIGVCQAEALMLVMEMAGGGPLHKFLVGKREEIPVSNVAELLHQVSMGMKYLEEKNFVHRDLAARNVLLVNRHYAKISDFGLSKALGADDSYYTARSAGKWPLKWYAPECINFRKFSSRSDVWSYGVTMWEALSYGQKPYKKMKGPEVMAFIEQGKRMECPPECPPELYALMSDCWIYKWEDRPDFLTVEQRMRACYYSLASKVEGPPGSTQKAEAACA
Briefly: Inhibition of ZAP70 (unknown origin).

The subject of data set [2] is Rattus norvegicus. Briefly: Dose normalized AUC in Wistar rat at 10 mg/kg, po. It counts as ADME, organism-based. Further details: dose 10 mg/kg, route oral. The settings on record: in vivo.
Data set [3] in a line: Plasma bioavailability in Wistar rat at 3 mg/kg, iv and 10 mg/kg, po. Format: ADME, organism-based.
Data set [4] concerns the target Tyrosine-protein kinase JAK2 (Homo sapiens, UniProt O60674). Briefly: Inhibition of JAK2 (unknown origin).
Data set [5] has as its system Bone marrow cell. Briefly: Inhibition of IL3 dependent proliferation in […] mouse bone marrow cells using [3H]thymidine by liquid scintillation counting. Format: functional, cell-based.
The nature of data set [6]: Volume of distribution at steady state in Wistar rat at 3 mg/kg, iv and 10 mg/kg, po. Format: ADME, organism-based. The note with it: in vivo, read-out: Vdss.
The target in data set [7] is T2, Receptor-type tyrosine-protein kinase FLT3 (Homo sapiens, UniProt P36888).
T2 sequence (P36888 whole entry): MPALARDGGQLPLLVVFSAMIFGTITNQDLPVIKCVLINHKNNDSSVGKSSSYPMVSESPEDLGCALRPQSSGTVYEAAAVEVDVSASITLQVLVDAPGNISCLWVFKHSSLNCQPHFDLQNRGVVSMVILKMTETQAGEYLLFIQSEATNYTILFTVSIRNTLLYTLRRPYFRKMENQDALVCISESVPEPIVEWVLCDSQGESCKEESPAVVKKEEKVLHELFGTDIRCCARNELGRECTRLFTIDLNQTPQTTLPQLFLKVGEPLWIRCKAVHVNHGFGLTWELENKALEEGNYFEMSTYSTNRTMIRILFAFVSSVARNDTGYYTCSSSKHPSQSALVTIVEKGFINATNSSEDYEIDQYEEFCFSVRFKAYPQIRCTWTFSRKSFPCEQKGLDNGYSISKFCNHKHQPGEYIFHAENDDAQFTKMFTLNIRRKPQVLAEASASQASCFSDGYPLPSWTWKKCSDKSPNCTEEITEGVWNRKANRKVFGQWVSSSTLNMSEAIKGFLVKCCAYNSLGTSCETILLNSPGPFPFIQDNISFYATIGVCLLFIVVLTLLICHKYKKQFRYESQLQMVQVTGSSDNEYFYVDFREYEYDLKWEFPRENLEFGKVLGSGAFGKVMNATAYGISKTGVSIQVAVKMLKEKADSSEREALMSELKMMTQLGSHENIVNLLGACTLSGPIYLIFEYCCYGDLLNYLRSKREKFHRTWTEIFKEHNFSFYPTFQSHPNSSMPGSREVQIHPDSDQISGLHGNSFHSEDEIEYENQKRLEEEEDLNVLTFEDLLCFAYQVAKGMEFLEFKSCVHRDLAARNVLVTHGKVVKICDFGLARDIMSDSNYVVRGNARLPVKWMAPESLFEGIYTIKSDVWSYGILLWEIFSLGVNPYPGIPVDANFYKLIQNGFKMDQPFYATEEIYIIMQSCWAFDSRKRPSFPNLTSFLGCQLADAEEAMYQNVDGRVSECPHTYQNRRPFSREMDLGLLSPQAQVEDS
Briefly: Inhibition of Flt3 (unknown origin).

In data set [8] the target is T3, Tyrosine-protein kinase SYK (Homo sapiens, UniProt P43405). Briefly: Inhibition of Syk in anti IgM-stimulated human Ramos cells assessed as BLNK phosphorylation by cellular assay.
Data set [9] deals with T3, Tyrosine-protein kinase SYK. Briefly: Inhibition of Syk (unknown origin) using 4 uM peptide assessed as product formation after 60 mins incubation by microfluidic mobility shift assay.
Data set [10] can be described thus: Clearance in Wistar rat at 3 mg/kg, iv and 10 mg/kg, po. Format: ADME, organism-based. The note with it: in vivo.
Data set [11] has as its system Rattus norvegicus. Briefly: Cmax/dose in Wistar rat at 3 mg/kg, iv and 10 mg/kg, po. It counts as ADME, organism-based. The note with it: in vivo.
A short description of data set [12]: Half life in rat liver microsomes. It counts as ADME. The settings on record: liver microsomes.
Data set [13] deals with T3, Tyrosine-protein kinase SYK. Briefly: Inhibition of Syk in human whole blood assessed as inhibition of P-SLP76 in CD14+ monocytes by flow cytometry. Background: In flow cytometry, cells or beads pass a laser one at a time.
Data set [14] addresses Voltage-gated inwardly rectifying potassium channel KCNH2 (Homo sapiens, UniProt Q12809). Briefly: Inhibition of human ERG by Q-patch assay.
Data set [15] addresses Tyrosine-protein kinase Lyn (Homo sapiens, UniProt P07948). Briefly: Inhibition of Lyn (unknown origin).
Data set [16] in a line: Terminal half life Wistar rat at 3 mg/kg, iv and 10 mg/kg, po. It counts as ADME, organism-based. The note with it: in vivo, read-out: beta t1/2 (converted).
The test system of data set [17] is Rattus norvegicus. Briefly: Dose normalized AUC in Wistar rat at 3 mg/kg, iv. Further details: dose 3 mg/kg, route intravenous. The settings on record: in vivo. It counts as ADME, organism-based.

Voltage-gated inwardly rectifying potassium channel KCNH2, sequence (Q12809 whole entry): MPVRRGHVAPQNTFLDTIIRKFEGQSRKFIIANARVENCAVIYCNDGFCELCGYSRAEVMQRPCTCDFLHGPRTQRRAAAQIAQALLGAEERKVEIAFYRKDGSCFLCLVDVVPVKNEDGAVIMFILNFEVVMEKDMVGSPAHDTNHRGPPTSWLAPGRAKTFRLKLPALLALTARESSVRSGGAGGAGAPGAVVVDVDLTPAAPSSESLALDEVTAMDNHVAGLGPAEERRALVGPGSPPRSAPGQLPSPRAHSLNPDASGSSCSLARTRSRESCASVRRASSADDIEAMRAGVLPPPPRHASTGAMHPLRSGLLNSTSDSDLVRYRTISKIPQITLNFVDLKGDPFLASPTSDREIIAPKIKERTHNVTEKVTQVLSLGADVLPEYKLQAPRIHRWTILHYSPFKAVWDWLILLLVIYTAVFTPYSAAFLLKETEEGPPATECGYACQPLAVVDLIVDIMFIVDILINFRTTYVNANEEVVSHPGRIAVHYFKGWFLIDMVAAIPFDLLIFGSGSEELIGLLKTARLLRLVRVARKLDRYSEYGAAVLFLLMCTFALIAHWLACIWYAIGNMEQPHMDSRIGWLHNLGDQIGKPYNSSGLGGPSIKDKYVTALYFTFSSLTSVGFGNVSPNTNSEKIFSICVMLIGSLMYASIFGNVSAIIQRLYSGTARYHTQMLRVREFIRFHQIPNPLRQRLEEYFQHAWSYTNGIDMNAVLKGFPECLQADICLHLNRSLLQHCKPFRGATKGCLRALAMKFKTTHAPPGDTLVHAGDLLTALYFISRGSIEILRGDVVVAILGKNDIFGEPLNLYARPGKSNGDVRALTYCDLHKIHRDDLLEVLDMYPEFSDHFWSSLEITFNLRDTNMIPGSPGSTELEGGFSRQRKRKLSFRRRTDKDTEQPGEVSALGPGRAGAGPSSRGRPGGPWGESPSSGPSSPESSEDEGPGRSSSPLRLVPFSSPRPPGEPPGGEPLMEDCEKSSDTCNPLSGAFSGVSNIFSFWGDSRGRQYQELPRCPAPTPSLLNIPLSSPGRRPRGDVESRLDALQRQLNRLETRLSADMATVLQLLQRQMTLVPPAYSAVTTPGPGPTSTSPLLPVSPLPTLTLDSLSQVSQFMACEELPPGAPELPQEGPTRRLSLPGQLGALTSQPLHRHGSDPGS
Tyrosine-protein kinase JAK2, sequence (O60674 whole entry): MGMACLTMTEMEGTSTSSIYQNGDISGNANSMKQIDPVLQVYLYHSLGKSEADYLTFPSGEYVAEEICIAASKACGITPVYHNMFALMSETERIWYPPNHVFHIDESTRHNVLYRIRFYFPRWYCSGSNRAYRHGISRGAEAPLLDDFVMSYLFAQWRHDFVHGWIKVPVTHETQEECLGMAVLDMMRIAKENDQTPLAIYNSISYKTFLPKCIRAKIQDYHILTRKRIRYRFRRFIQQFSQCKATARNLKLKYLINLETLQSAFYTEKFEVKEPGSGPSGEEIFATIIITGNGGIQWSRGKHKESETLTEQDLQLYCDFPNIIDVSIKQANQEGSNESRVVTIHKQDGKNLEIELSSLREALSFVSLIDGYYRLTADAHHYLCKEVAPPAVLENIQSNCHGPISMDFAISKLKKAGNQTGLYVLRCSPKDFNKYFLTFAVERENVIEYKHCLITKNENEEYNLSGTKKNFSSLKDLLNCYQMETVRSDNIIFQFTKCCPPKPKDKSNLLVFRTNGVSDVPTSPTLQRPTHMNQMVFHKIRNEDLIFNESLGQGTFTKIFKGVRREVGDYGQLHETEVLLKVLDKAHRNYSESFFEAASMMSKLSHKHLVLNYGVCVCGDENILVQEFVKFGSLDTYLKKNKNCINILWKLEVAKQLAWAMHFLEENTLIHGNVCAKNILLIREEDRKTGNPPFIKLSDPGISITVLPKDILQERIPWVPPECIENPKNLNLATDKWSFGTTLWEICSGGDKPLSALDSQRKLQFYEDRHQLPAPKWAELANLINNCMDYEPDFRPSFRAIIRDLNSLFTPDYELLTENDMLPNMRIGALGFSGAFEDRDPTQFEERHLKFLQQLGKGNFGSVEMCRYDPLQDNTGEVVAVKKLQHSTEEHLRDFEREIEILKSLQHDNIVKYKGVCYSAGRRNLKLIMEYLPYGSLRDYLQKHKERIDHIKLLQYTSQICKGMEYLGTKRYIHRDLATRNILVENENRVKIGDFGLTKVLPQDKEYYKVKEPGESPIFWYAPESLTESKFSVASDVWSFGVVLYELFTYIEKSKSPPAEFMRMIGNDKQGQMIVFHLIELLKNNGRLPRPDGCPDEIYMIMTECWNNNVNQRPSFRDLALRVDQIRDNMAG
Tyrosine-protein kinase Lyn, sequence (P07948 whole entry): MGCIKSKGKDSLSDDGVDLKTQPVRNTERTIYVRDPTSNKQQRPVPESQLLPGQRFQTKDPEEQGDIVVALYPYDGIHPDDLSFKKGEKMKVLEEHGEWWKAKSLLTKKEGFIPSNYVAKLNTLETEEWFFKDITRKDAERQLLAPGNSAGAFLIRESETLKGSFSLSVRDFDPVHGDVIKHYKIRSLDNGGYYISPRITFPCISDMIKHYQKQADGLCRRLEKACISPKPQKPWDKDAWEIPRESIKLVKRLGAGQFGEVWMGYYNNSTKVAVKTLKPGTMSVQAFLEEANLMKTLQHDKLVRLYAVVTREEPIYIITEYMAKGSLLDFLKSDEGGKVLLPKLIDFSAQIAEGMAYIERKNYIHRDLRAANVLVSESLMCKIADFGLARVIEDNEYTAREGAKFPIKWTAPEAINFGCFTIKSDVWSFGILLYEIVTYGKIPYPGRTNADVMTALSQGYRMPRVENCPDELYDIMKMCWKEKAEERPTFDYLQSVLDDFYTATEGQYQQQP

Regarding `N[C@H]1COCC[C@H]1Nc1cc2cc[nH]c(=O)c2c(Nc2cccc3cc[nH]c23)n1`, the concentration for half-maximal inhibition (IC50) in data set [1] stood at 0.34 µM; in data set [4], 0.68 µM; in [5] it was 3.51 µM; in data set [7], 0.02 µM; in data set [8] it was 0.055 µM; in data set [9], 0.022 µM. Also, the IC50 in data set [13] turned out to be 0.433 µM; in [14], 24.9 µM; in data set [15] it was 1.2 µM. Besides, the AUC/dose came to 19 nM·h in data set [2] and 299 nM·h in [17]. Moreover, in data set [3], the bioavailability worked out at 7%. Besides, the Vd in [6] was determined as 18 L/kg. Further, the clearance in [10] was found to be 8.52 L/h/kg. The Cmax/dose in data set [11] worked out at 2 nM. The values for the half-life in data set [12] and in data set [16] were 0.833 h and 2.1 h, respectively.

What is called IC50 is the concentration needed to halve the response being measured. As usually defined, the bioavailability is the share of a dose that reaches the circulation, judged against a reference dose that is usually intravenous. Read a high bioavailability as much systemic uptake.
